Test results reported in patent US20260297542A1, “HERBICIDE RESISTANT PLANTS” (SYNGENTA CROP PROTECTION AG, priority 2023, published 2026).
Where a chain is given by its changes, count along the chain named.

Legend:
Assay in all cases: E. coli hemG growth inhibition by herbicide, AtPPO1 variant
Format in all cases: cell-based
Conditions in all cases: read-out: percentage growth inhibition
AtPPO1 Q272T = molecular target: T1, AtPPO1 Q272T (Arabidopsis thaliana, UniProt P55826, Q272T)
T1 construct: expressed in transfected cells; host or cells: E. coli BL21(DE3) hemG (hemG replaced by CmR), pET24a plasmid
T1 sequence (P55826 35-537 Q272T): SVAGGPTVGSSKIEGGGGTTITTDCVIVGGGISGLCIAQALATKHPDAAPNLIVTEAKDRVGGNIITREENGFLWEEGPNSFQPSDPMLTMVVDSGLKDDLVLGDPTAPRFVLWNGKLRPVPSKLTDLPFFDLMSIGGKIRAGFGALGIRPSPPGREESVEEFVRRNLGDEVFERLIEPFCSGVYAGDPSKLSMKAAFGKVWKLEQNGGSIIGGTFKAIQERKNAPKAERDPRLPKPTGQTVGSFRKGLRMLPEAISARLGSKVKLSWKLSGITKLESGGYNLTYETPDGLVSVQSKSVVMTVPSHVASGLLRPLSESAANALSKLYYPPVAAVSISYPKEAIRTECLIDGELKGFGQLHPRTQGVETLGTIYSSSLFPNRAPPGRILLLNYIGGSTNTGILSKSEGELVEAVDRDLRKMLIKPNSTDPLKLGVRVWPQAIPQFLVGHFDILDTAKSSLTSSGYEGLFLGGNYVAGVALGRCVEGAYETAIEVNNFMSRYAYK
In short: (§1)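 AtPPO1 variants from a site-saturation library, codon-optimised and T7-driven in pET24a, were expressed in E. coli BL21(DE3) lacking hemG (hemG replaced by CmR). Growth in Terrific broth with 0.1 mM IPTG plus 6.25 ppm herbicide 0 or E, 0.78 ppm herbicide B, or DMSO was read as OD600 after 24 h at 37° C; inhibition was calculated against the DMSO culture.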

AtPPO1 R449K = molecular target: T2, AtPPO1 R449K (Arabidopsis thaliana, UniProt P55826, R449K)
T2 construct: expressed in transfected cells; host or cells: E. coli BL21(DE3) hemG, pET24a plasmid
T2 sequence (P55826 35-537 R449K): T1 sequence (P55826 35-537 Q272T) with T238Q, R415K
In short: as §1

AtPPO1 Y361P = molecular target: T3, AtPPO1 Y361P (Arabidopsis thaliana, UniProt P55826, Y361P)
T3 construct: expressed in transfected cells; host or cells: E. coli BL21(DE3) hemG (pET24a, T7 promoter)
T3 sequence (P55826 35-537 Y361P): T1 sequence (P55826 35-537 Q272T) with T238Q, Y327P
In short: as §1

AtPPO1 V365M = molecular target: T4, AtPPO1 V365M (Arabidopsis thaliana, UniProt P55826, V365M)
T4 construct: expressed in transfected cells; host or cells: E. coli BL21(DE3) hemG (pET24a, T7 promoter)
T4 sequence (P55826 35-537 V365M): T1 sequence (P55826 35-537 Q272T) with T238Q, V331M
In short: as §1

SMILES	inhibition at 6.25 ppm (AtPPO1 Q272T)	inhibition at 6.25 ppm (AtPPO1 R449K)	inhibition at 6.25 ppm (AtPPO1 Y361P)	inhibition at 6.25 ppm (AtPPO1 V365M)	inhibition at 0.78 ppm (AtPPO1 Q272T)	inhibition at 0.78 ppm (AtPPO1 R449K)	inhibition at 0.78 ppm (AtPPO1 Y361P)	inhibition at 0.78 ppm (AtPPO1 V365M)
CCOC(=O)[C@]1(C)CC(c2cc(-n3c(=O)n(C)c(=S)n(C)c3=O)c(F)cc2Cl)=NO1 [Herbicide D, ethyl (5S)-3-[2-chloro-5-(3,5-dimethyl-2,6-dioxo-4-thioxo-1,3,5-triazinan-1-yl)-4-fluoro-phenyl]-5-methyl-4H-isoxazole-5-carboxylate]	23%	37%	36%	42%				
C#CCN1C(=O)C(F)(F)Oc2cc(F)c(-n3c(=O)n(C)c(=S)n(C)c3=O)cc21 [Herbicide B, trifludimoxazin]					28%	35%	28%	3%
CC(C)N(C)S(=O)(=O)NC(=O)c1cc(-n2c(=O)cc(C(F)(F)F)n(C)c2=O)c(F)cc1Cl [Herbicide E, saflufenacil]	64%	68%	38%	22%				
